Conditions in all cases: 200 µM NADPH, 0.1 M potassium phosphate pH 6.4, 30 °C
Data set [1] deals with T1, McTRI.
T1 construct: gene TRI
Briefly: NADPH consumption at […] nm, Michaelis-Menten fit. Format: biochemical, Mandragora caulescens.

The subject of data set [2] is T2, BaTRI.
T2 construct: gene TRI
Kind of data set: NADPH consumption at […] nm, Michaelis-Menten fit. Format: biochemical, Brugmansia arborea.

Data set [3] has as its system T3, LcTRI.
T3 construct: gene TRI
Kind of data set: NADPH consumption at […] nm, Michaelis-Menten fit. Format: biochemical, Lycium chinense.

Data set [4] concerns CN1[C@@H]2CC[C@H]1CC(=O)C2. Briefly: purified protein. Format: biochemical, Solanum tuberosum.

One may read the Km as the substrate concentration at which the rate is half of its maximum. Regarding `CN1[C@@H]2CC[C@H]1CC(=O)C2` [compound 5, tropinone], the figures for the Michaelis-Menten constant (Km) in data set [1], in data set [2] and in data set [3] were 90 ± 10 µM, 310 ± 30 µM and 2910 ± 140 µM, respectively.
As for “StTRI (Solanum tuberosum; A101V/A193G/L159V/V147L)”, the Km in data set [4] was 110 ± 10 µM.
The term kcat denotes the maximal rate divided by the concentration of active sites. With StTRI (Solanum tuberosum; A101V/L159V), in data set [4], the Michaelis constant (Km) stood at 280 ± 70 µM and the kcat worked out at 3.31 ± 0.20 s⁻¹.

The record behind these values is publication PMC10730914, “Multiple independent losses of the biosynthetic pathway for two tropane alkaloids in the Solanaceae family” (Nature Communications, 2023).
